From US20260345582A1, “PRODRUG FOR ANTI-AGING RELATED DISEASES AND USE METHOD THEREOF” (Beijing SunCell Bio-Medical Co., Ltd., priority 2022, published 2026)

Legend:
[1] = system: mouse model of Bleomycin-induced pulmonary fibrosis; test: lung specific gravity index in Bleomycin-induced pulmonary fibrosis; type: in vivo, C57 mice; details: i.p. four weeks; A13 2 mg/kg, A13bGa1 5 mg/kg; FIG. 5C
Procedure: (§1) A. Modelling of a mouse model of Bleomycin-induced pulmonary fibrosis, and the schematic diagram of treatment. Mice were modelled with Bleomycin administered via tracheal instillation on day 0, and the treatment with intraperitoneal injection of the drug was started on day 4. The drug was administered for 3 consecutive days per week, followed by a 4-day withdrawal, for 4 weeks.
C. Comparison of lung specific gravity index calculated for different groups of mice. After completion of drug administration according to the dosing protocol, the mice were executed and the lungs of the mice were taken and weighed to calculate the lung specific gravity index, lung index=the lung weight (g)/the body weight (g)×100%. A13 represents the A1331852 treatment group at a dose of 2 mg/kg; A13bGa1 represents prodrug treatment group at a dose of 5 mg/kg; VEH represents the vehicle treatment control group; and NC represents the saline tracheal instillation modelling control group. Each dot in the panel represents the result of the lung specific gravity index of 1 mouse, n=5 in the saline modelling control group, and n=6 in other groups. The statistical analysis was performed using unpaired T-test, ns indicates no statistical difference; with *p<0.05; and **p<0.01. […]

[2] = system: mouse model of Bleomycin-induced pulmonary fibrosis; test: HE pathological changes in the lungs, Bleomycin-induced pulmonary fibrosis; type: in vivo, C57 mice; details: A13 2 mg/kg, A13bGa1 5 mg/kg; for inflammation and consolidation of the mouse lungs (HE pathology): i.p. four weeks, FIG. 5D and Table 1
Procedure: as §1
D. Representative results of HE and Masson staining of the pathological sections of lungs taken from different groups of mice after execution. Normal represents the saline tracheal instillation modelling control group; Vehicle represents the vehicle administration control group; A13bGa1 represents the prodrug treatment group; A13 represents the A1331852 treatment group. Scale bar: 500 μm.
All drugs were mixed in 85% physiological saline, 5% DMSO (Sigma, D8418) and 10% Solutol HS 15 (Sigma, 42966), and administered to mice by intraperitoneal (i.p.) injection. To treat the bleomycin-injured young mice, A13 (2 mg/kg), A13bGa1 (5 mg/kg), or an empty vehicle control was administered three consecutive days per week for four weeks. A1331852 (abbreviated as A13) was purchased from MCE.
Bleomycin-Induced Pulmonary Fibrosis
Bleomycin was purchased from Selleck. As previously reported (Bivas-Benita et al., Eur J Pharm Biopharm 61, 214-218 (2005)), a transtracheal injection of bleomycin (2 mg/kg) was performed to the young male C57 mice (8-10 weeks old) to induce lung fibrosis. Drug treatment was initiated four days after modelling, and the drug was administered three consecutive days per week for four consecutive weeks, after which the mice were executed for material collection.
Histopathological Examination
All animals (including those found dead, dying, and euthanised) were autopsied, and the lung tissues were preserved. The lungs were separated, the fat and other tissues were removed, the surface fluid was absorbed using a filter paper, and the whole lungs were weighed (those found dead, dying, and euthanised) for calculation of the lung weight index. The right lung and bronchiole were fixed in 10% neutral buffered formalin solution, embedded in paraffin, sectioned, prepared into slices, and stained with HE for a histopathological and morphological observation of the lung. The degree of the lesions such as the inflammatory cell infiltration in the lung tissue were graded according to a 4-grade classification (slight, mild, moderate, severe) using a standard terminology for diagnosis and classification. The left lung tissue was clipped and stored temporarily below −60′C.

[3] = system: HEF cells (primary human embryonic skin fibroblast), induced senescent with Etoposide; test: in vitro killing of induced senescent HEF cells (CCK-8); type: cell-based
Source text: C. Comparison of the killing effects of three Bcl-xL inhibitors on the induced senescent HEF cell model. HEF represents the isolated early generation uninduced HEF cell group; and HEF-ETO represents the senescent HEF cell group induced with Etoposide (ETO) in vitro.
(§2) Induction of the Cellular Senescence

[4] = system: A549 cells (human non-small cell lung cancer cell), induced senescent with Cisplatin; test: in vitro killing of induced senescent A549 cells (CCK-8); type: cell-based
Source text: A. The killing results of some selected compounds in the in vitro compound library screening on the induced senescent A549 cell model. Wherein, MZ-1, dBET6, ARV-825, I-BET726, I-BET151, and INCB057643 are all BET inhibitors; A1331852 and A1155463 are novel Bcl-xL inhibitors; Dasatinib, Quercetin, Fisetin, Curcumin are the familiar active drugs or natural products.
B. Comparison of the killing effects of three Bcl-xL inhibitors on the induced senescent A549 cell model. A549 represents the normal uninduced A549 cell group; and A549-CDDP represents the senescent A549 cell group induced with Cisplatin (CDDP) in vitro.
as §2

Cc1c(-c2ccc(N3CCc4cccc(C(=O)Nc5nc6ccccc6s5)c4C3)nc2C(=O)OCc2ccc(O[C@@H]3O[C@H](CO)[C@H](O)[C@H](O)[C@H]3O)c([N+](=O)[O-])c2)cnn1CC12CC3CC(CC(C3)C1)C2 [Compound A13bGa1]
lung specific gravity index (lung weight/body weight×100%) [1]: recovered to the normal level | inflammation and consolidation of the mouse lungs (HE pathology) [2]: significant improvement | Bleeding, alveolar/interstitial: mild (++) ([2]; of 6 animals): 0 number of animals | Bleeding, alveolar/interstitial: moderate (+++) ([2]; of 6 animals): 0 number of animals | Bleeding, alveolar/interstitial: negative (−) ([2]; of 6 animals): 3 number of animals | Bleeding, alveolar/interstitial: slight (+) ([2]; of 6 animals): 3 number of animals | Exudative oedema, alveolar: mild (++) ([2]; of 6 animals): 2 number of animals | Exudative oedema, alveolar: moderate (+++) ([2]; of 6 animals): 1 number of animals | Exudative oedema, alveolar: negative (−) ([2]; of 6 animals): 2 number of animals | Exudative oedema, alveolar: severe (++++) ([2]; of 6 animals): 0 number of animals | Exudative oedema, alveolar: slight (+) ([2]; of 6 animals): 1 number of animals | The infiltration of the inflammatory cells: mild (++) ([2]; of 6 animals): 0 number of animals | The infiltration of the inflammatory cells: moderate (+++) ([2]; of 6 animals): 1 number of animals | The infiltration of the inflammatory cells: negative (−) ([2]; of 6 animals): 4 number of animals | The infiltration of the inflammatory cells: slight (+) ([2]; of 6 animals): 1 number of animals | Thickening and consolidation of the pulmonary septum: mild (++) ([2]; of 6 animals): 5 number of animals | Thickening and consolidation of the pulmonary septum: moderate (+++) ([2]; of 6 animals): 0 number of animals | Thickening and consolidation of the pulmonary septum: negative (−) ([2]; of 6 animals): 1 number of animals | Thickening and consolidation of the pulmonary septum: severe (++++) ([2]; of 6 animals): 0 number of animals | Thickening and consolidation of the pulmonary septum: slight (+) ([2]; of 6 animals): 0 number of animals | killing of the senescent cells, efficiency and selectivity ([3]; HEF cells, human skin-derived fibroblasts, FIG. 3B): highly efficient and selective in killing the senescent cells | killing of the senescent cells, efficiency and selectivity ([4]; A549 cells, lung-derived, FIG. 3E): highly efficient and selective in killing the senescent cells

Cc1c(-c2ccc(N3CCc4cccc(C(=O)Nc5nc6ccccc6s5)c4C3)nc2C(=O)O)cnn1CC12CC3CC(CC(C3)C1)C2 [Compound A13, 3-[1-(adamantan-1-ylmethyl)-5-methylpyrazol-4-yl]-6-{8-[(1,3-benzothiazol-2-yl)carbamoyl]-3,4-dihydro-1H-isoquinolin-2-yl}pyridine-2-carboxylic acid]
lung specific gravity index (lung weight/body weight×100%) [1]: no improvement in the lung index | inflammation and consolidation of the mouse lungs (HE pathology) [2]: no improvement | selective killing effect on the senescent cells ([3]; HEF-ETO vs HEF, FIG. 1C): selective killing effect on the senescent cells | selective killing effect on the senescent cells ([4]; A549-CDDP vs A549, FIG. 1B): selective killing effect on the senescent cells | senescent cell killing activity and selectivity, compound screening ([4]; induced senescent A549 cell model, FIG. 1A): good senescent cell killing activity and selectivity in vitro
